From patent US20230302022A1, “PREVENTING OR MITIGATING CHEMOTHERAPY INDUCED ALOPECIA USING VITAMIN D” (priority 2016, published 2023)
Values joined by “and” are separate entries in the source; they are usually repeats but may differ in a detail not shown here. Equal entries are not always repeated.

Assays:
[1] = Phase I study: serum levels of calcitriol (PK); format: in vivo, human; design: unit not given here; conditions: individual patients
Description: Pharmacokinetics (all patients). For the purpose of pharmacokinetic studies (PKs), blood samples will be collected on Day 1 of topical treatment at the following time points: pre-dose, at 2 hours (+/−30 minutes), 4 hours (+/−30 minutes), and 8 hours (+/−1 hour post dose) after a single application on the morning of Day 1. The second application of drug product will be applied 10-14 hours after the initial application and after the 8 hour PK sample. Thereafter, topical application frequency will be twice daily, morning and night. Subsequently, a PK sample will be taken 12 hours (+/−2 hours) after the last dose of each 28 day treatment, before the first application of Day 1 of the next 28 day treatment cycle. This schedule will continue for three consecutive 28 day topical treatment cycles. (PKs will be drawn at weeks 1, 5, 9, and 13. In addition if patients are still on study, a PK will also be drawn at week 54.) Vital signs will be obtained approximately 5 minutes before each blood collection, and the actual collection times will be recorded.
At each collection, collect blood by venipuncture in a serum separator tube(s). Centrifuge at 1200 RCF for 10±5 minutes, and aliquot 1.5 mL of serum each into 2 labeled externally threaded cryogenic vials and immediately freeze. […] Serum samples will be transported with a sufficient amount of dry ice to keep the samples frozen until arrival.
(§1) Each patient underwent PK analysis, adverse event monitoring, patient self-assessment diaries (1-10 scale), and blinded photographic assessments. […] Toxicity was determined on a weekly basis during Cycle 1 (i.e., the first 28 days of topical agent application) and subsequently every four weeks. Patients were managed with adequate safety (adverse event) monitoring and pharmacokinetic (PK) analysis in order to determine levels of exposure.

[2] = tested on: chloroleukemia C51 cells; conditions: 0.2 μg pretreatment prior to cyclophosphamide; cited from earlier work
[3] = tested on: PC-3; test: Cell viability assay, PC-3; format: cell-based; conditions: PC-3, 0.1 μg/mL calcitriol for two passages
Description: The drug treatment period was usually three days. At the end of the three days, the background OD of the 96-well plate was read at 280 nm, before 20 μL of the “Substrate Cell Titer 96 Aqueous One Solution Reagent” (Promega) was added to each well. The plate was returned to the 37° C. incubator, and its OD at 490 nm was read each hour until an OD of approximately 1.5 was reached. The net OD increase was calculated by subtracting the pre-substrate OD reading.
The impact of the drug on the cells was calculated by comparing the OD at different concentrations in relation to the OD of the control wells (without the drug).
Then these pretreated cells were utilized to set up the cell based assay.

[4] = tested on: NIH-3T3 (immortalized fibroblast); test: Cell growth / viability assay, NIH-3T3; format: cell-based
Description: The drug treatment period was usually three days. At the end of the three days, the background OD of the 96-well plate was read at 280 nm, before 20 μL of the “Substrate Cell Titer 96 Aqueous One Solution Reagent” (Promega) was added to each well. […] The net OD increase was calculated by subtracting the pre-substrate OD reading. The impact of the drug on the cells was calculated by comparing the OD at different concentrations in relation to the OD of the control wells (without the drug). The results of the Net OD as a function of drug concentration was plotted and used to determine ED50 values.

[5] = Preliminary animal toxicology study; format: in vivo; conditions: dose of about 100 μg
[6] = tested on: Sprague-Dawley or Long Evans rats; test: CIA in 5-day-old Sprague-Dawley or Long Evans rats, calcitriol 1, 2 or 3 μg/mL; format: in vivo, rat
[7] = tested on: squamous cell carcinoma and human prostate cell carcinoma; conditions: 2.5 μg 3 doses daily for 3 days, followed by paclitaxel; cited from earlier work
[8] = tested on: patients; test: Phase I dose-escalation study: safety and tolerability in cancer patients on taxane-based chemotherapy; format: in vivo
Description: The dosage will be escalated if the clinical toxicity is declared acceptable (see below). five dose levels will be considered for escalation (10, 20, 40, 60 and 80 μg/mL). Determination of dose limiting toxicity (DLT, defined in section 8.2) will be made during the first 28 days of topical treatment. No intrapatient dose escalation will be performed. […] The dose escalation scheme (Table 8.1) will occur as follows:
If the patient presents with symptoms of hypercalcemia, serum calcium should be determined and treatment should be stopped immediately. Hypercalcemia will be defined using CTCAE version 4.0 grade 3 (or higher), which is defined as serum calcium >12.5-13.5 mg/dL; >3.1-3.4 mmol/L or ionized calcium >1.6-1.8 mmol/L and hospitalization is indicated. For patients with asymptomatic hypercalcemia determined by elevated serum calcium, their ionized calcium levels will first be checked. If the ionized calcium level is in fact elevated, the study drug will be stopped. If the ionized calcium level is normal, the patient will remain on the study and ionized calcium will be followed rather than serum calcium.
as §1

[9] = tested on: Long Evans and Sprague Dawley rats; test: Chemotherapy-induced alopecia (CIA) in the neonatal rat, topical calcitriol formulation; format: in vivo

C=C1/C(=C\C=C2/CCC[C@]3(C)[C@@H]([C@H](C)CCCC(C)(C)O)CC[C@@H]23)C[C@@H](O)C[C@@H]1O [Calcitriol, (5Z,7E)-9,10-secocholesta-5,7.10(19Hriene-1 a,33.25-triol]
Serum Levels of Calcitriol ([1]; 5 μg/mL, Week 1, Hour 0 (pre-dose)): 43.8 and 47.9 and 55.3 | Serum Levels of Calcitriol ([1]; 5 μg/mL, Week 1, Hour 2): 38.8 and 48.4 and 46.2 | Serum Levels of Calcitriol ([1]; 5 μg/mL, Week 1, Hour 4): 45 and 51 and 58.7 | Serum Levels of Calcitriol ([1]; 5 μg/mL, Week 1, Hour 8): 33.2 and 44.4 and 39.5 | Serum Levels of Calcitriol ([1]; 5 μg/mL, Week 5, Hour 0): 57.5 and 49.6 and 61.8 | Serum Levels of Calcitriol ([1]; 5 μg/mL, Week 9, Hour 0): 63.2 and 46.5 | Serum Levels of Calcitriol ([1]; 5 μg/mL, Week 13, Hour 0): 56 and 54.6 | Serum Levels of Calcitriol ([1]; 10 μg/mL, Week 1, Hour 0 (pre-dose)): 37.7 and 60 and 32 | Serum Levels of Calcitriol ([1]; 10 μg/mL, Week 1, Hour 2): 32.9 and 59 and 33 | Serum Levels of Calcitriol ([1]; 10 μg/mL, Week 1, Hour 4): 36.7 and 57 and 31 | Serum Levels of Calcitriol ([1]; 10 μg/mL, Week 1, Hour 8): 50 and 28 | Serum Levels of Calcitriol ([1]; 10 μg/mL, Week 5, Hour 0): 83.2 and 32 and 44 | Serum Levels of Calcitriol ([1]; 10 μg/mL, Week 9, Hour 0): 41 | Serum Levels of Calcitriol ([1]; 10 μg/mL, Week 13, Hour 0): 25.9 | Serum Levels of Calcitriol ([1]; 20 μg/mL, Week 1, Hour 0 (pre-dose)): 110 and 33.7 and 41 and 46.8 and 40 | Serum Levels of Calcitriol ([1]; 20 μg/mL, Week 1, Hour 2): 90 and 38 and 54.1 and 40 | Serum Levels of Calcitriol ([1]; 20 μg/mL, Week 1, Hour 4): 85 and 22.4 and 39 and 50.1 and 41 | Serum Levels of Calcitriol ([1]; 20 μg/mL, Week 1, Hour 8): 65 and 26.4 and 38 and 53.7 and 39 | Serum Levels of Calcitriol ([1]; 20 μg/mL, Week 5, Hour 0): 27.3 and 98 and 56.4 | Serum Levels of Calcitriol ([1]; 20 μg/mL, Week 9, Hour 0): 64.9 and 37.7 | Serum Levels of Calcitriol ([1]; 40 μg/mL, Week 1, Hour 0 (pre-dose)): 44.7 | Serum Levels of Calcitriol ([1]; 40 μg/mL, Week 1, Hour 2): 75.2 and 67.1 | Serum Levels of Calcitriol ([1]; 40 μg/mL, Week 1, Hour 4): 56.1 and 68.4 | Serum Levels of Calcitriol ([1]; 40 μg/mL, Week 1, Hour 8): 30.1 and 66.9 | Serum Levels of Calcitriol ([1]; 40 μg/mL, Week 9, Hour 0): 37.3 | Serum Levels of Calcitriol ([1]; 40 μg/mL, Week 13, Hour 0): 92 and 46.7 | Serum Levels of Calcitriol ([1]; 60 μg/mL, Week 1, Hour 0 (pre-dose)): 29.1 and 36.4 | Serum Levels of Calcitriol ([1]; 60 μg/mL, Week 1, Hour 2): 21.3 and 38.5 and 42 | Serum Levels of Calcitriol ([1]; 60 μg/mL, Week 1, Hour 4): 24.7 and 41.2 and 42.9 | Serum Levels of Calcitriol ([1]; 60 μg/mL, Week 1, Hour 8): 23.3 and 39.4 and 41.5 | Serum Levels of Calcitriol ([1]; 60 μg/mL, Week 5, Hour 0): 65.4 and 81.6 | Serum Levels of Calcitriol ([1]; 60 μg/mL, Week 9, Hour 0): 60.7 and 61.5 | Serum Levels of Calcitriol ([1]; 60 μg/mL, Week 13, Hour 0): 45 | Serum Levels of Calcitriol ([1]; 80 μg/mL, Week 1, Hour 0 (pre-dose)): 28.3 and 29.4 and 55.7 | Serum Levels of Calcitriol ([1]; 80 μg/mL, Week 1, Hour 2): 31.8 and 35.6 and 64.8 | Serum Levels of Calcitriol ([1]; 80 μg/mL, Week 1, Hour 4): 29.6 and 42.1 and 61.4 | Serum Levels of Calcitriol ([1]; 80 μg/mL, Week 1, Hour 8): 36.6 and 58.9 | Serum Levels of Calcitriol ([1]; 80 μg/mL, Week 5, Hour 0): 95.5 | survival rate vs ethanol vehicle [2]: No statistically significant difference in the survival rate | response to doxorubicin, cisplatin and erlotinib after calcitriol exposure [3]: did not alter | effect of calcitriol on cell growth [4]: no significant growth promoting or growth inhibiting effects | effect of calcitriol on the cytotoxic effect of Doxorubicin [4]: did not appear to appreciably alter | dermal irritation [5]: no dermal irritation | epidermal / dermal penetration [5]: excellent epidermal penetration without substantial dermal penetration | location of hair growth ([6]; 1 μg/mL): limited to the treated area | location of hair growth ([6]; 3 μg/mL): also observed on the dorsal region | protection from CIA ([6]; 6-hour exposure): complete protection | protection from CIA ([6]; 1.5 hour exposure): no protection | tumor response [7]: significant tumor regression | AEs Related to Study Drug ([8]; 5 μg/mL × 1 mL BID): Mild Scalp pain (1) | serious adverse events reported (number) ([8]; all dose levels): 25 | dose limiting toxicities (DLTs) ([8]; human, in vivo): No dose limiting toxicities | serious adverse events unrelated/unlikely to the study drug ([8]; human, in vivo, 3 months): 84% | serious adverse events unrelated/unlikely to the study drug (number) ([8]; human, in vivo, 3 months): 21 | serious adverse events possibly related to the study drug (number) ([8]; one patient, 40 μg/mL, passing a renal calculi): 4 | maximum tolerated dose (MTD) ([8]; up to 80 μg/mL): not detected | protection from cytarabine-induced alopecia [9]: protective effect
